ChEMBL document CHEMBL1201862, “PubChem BioAssay data set” (2004)
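Values below derive from 48-hour exposures of cells grown in 96-well plates, with endpoints linearly interpolated between the two concentrations bracketing the appropriate inhibition level. Abbreviation: GI50, concentration required for 50% inhibition of growth.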 Activity calls are given as the source filed them. Rule as the data show it: active = GI50 up to about 1.1 µM and inactive = higher.

Columns and labels:
Test in all cases: NCI-60 cell line screen, 48 h
SNB-75 = test system: SNB-75
UO-31 = test system: UO-31
SK-MEL-5 = test system: SK-MEL-5
SK-MEL-2 = test system: SK-MEL-2
SNB-19 = test system: SNB-19
M14 = test system: M14
NCI-H226 = test system: NCI-H226
ACHN = test system: ACHN
RPMI-8226 = test system: RPMI-8226
T47D = test system: T47D
A498 = test system: A498
NCI-H23 = test system: NCI-H23
IGROV-1 = test system: IGROV-1
CAKI-1 = test system: CAKI-1
TK-10 = test system: TK-10
A549 = test system: A549
786-0 = test system: 786-0
MDA-MB-435 = test system: MDA-MB-435

**Q.** For `COc1cc(C2c3cc4c(cc3OC(NNC(N)=O)C2C)OCO4)cc(OC)c1O` (stereo not drawn), which GI50 (SNB-75) is on record?
**A.** 0.805 µM (active)

**Q.** What about the GI50 (UO-31) of the same compound?
**A.** 8.04 µM (inactive)

**Q.** And the GI50 (SK-MEL-5)?
**A.** 0.91 µM (active)

**Q.** What about the GI50 (SK-MEL-2) of the same compound?
**A.** 6.18 µM (inactive)

**Q.** What about the GI50 (SNB-19) of the same compound?
**A.** 7.29 µM (inactive)

**Q.** And the GI50 (M14)?
**A.** 2.73 µM (inactive)

**Q.** What about the GI50 (NCI-H226) of the same compound?
**A.** 6.65 µM (inactive)

**Q.** What about the GI50 (ACHN) of the same compound?
**A.** 5.93 µM (inactive)

**Q.** And the GI50 (RPMI-8226)?
**A.** 1.64 µM (inactive)

**Q.** And the GI50 (T47D)?
**A.** > 100 µM (inactive)

**Q.** And the GI50 (A498)?
**A.** 3.41 µM (inactive)

**Q.** And the GI50 (NCI-H23)?
**A.** 4.92 µM (inactive)

**Q.** And the GI50 (IGROV-1)?
**A.** 1.62 µM (inactive)

**Q.** What about the GI50 (CAKI-1) of the same compound?
**A.** 7.91 µM (inactive)

**Q.** And the GI50 (TK-10)?
**A.** 13.8 µM (inactive)

**Q.** And the GI50 (A549)?
**A.** 3.45 µM (inactive)

**Q.** What about the GI50 (786-0) of the same compound?
**A.** 2.99 µM (inactive)

**Q.** What about the GI50 (MDA-MB-435) of the same compound?
**A.** 0.324 µM (active)

**Q.** `COc1ccc(/N=N/C(=O)NC(CC(C)C)C(=O)NC(C)C(=O)O)cc1` (stereo not drawn) was tested. Which GI50 (SNB-75) did it give?
**A.** > 100 µM (inactive)

**Q.** And the GI50 (UO-31)?
**A.** 2.38 µM (inactive)

**Q.** And the GI50 (SK-MEL-5)?
**A.** 5.7 µM (inactive)

**Q.** What about the GI50 (SK-MEL-2) of the same compound?
**A.** > 35.8 µM (inactive)

**Q.** What about the GI50 (SNB-19) of the same compound?
**A.** > 100 µM (inactive)

**Q.** What about the GI50 (M14) of the same compound?
**A.** 1.29 µM (inactive)

**Q.** And the GI50 (NCI-H226)?
**A.** > 75.2 µM (inactive)

**Q.** And the GI50 (ACHN)?
**A.** 1.53 µM (inactive)

**Q.** What about the GI50 (RPMI-8226) of the same compound?
**A.** 20.8 µM (inactive)

**Q.** What about the GI50 (T47D) of the same compound?
**A.** 3.63 µM (inactive)

**Q.** And the GI50 (A498)?
**A.** > 100 µM (inactive)

**Q.** And the GI50 (NCI-H23)?
**A.** > 86.5 µM (inactive)

**Q.** And the GI50 (IGROV-1)?
**A.** 18.6 µM (inactive)

**Q.** What about the GI50 (CAKI-1) of the same compound?
**A.** > 100 µM (inactive)

**Q.** And the GI50 (TK-10)?
**A.** > 29.9 µM (inactive)

**Q.** And the GI50 (A549)?
**A.** 3.32 µM (inactive)

**Q.** And the GI50 (786-0)?
**A.** > 100 µM (inactive)

**Q.** And the GI50 (MDA-MB-435)?
**A.** 1.98 µM (inactive)

**Q.** What does the source list for `C=C1C(=O)O[C@H]2C/C(C)=C/CC/C(C)=C/CC[C@@](C)(O)[C@@H](I)C[C@@H]12`?
**A.** GI50 (SNB-75): 11 µM (inactive); GI50 (UO-31): 11.7 µM (inactive); GI50 (SK-MEL-5): 11.8 µM (inactive); GI50 (SK-MEL-2): 11.7 µM (inactive); GI50 (SNB-19): 15 µM (inactive); GI50 (M14): 9.64 µM (inactive); GI50 (NCI-H226): 3.42 µM (inactive); GI50 (ACHN): 8.77 µM (inactive); GI50 (RPMI-8226): 2.69 µM (inactive); GI50 (T47D): 11.7 µM (inactive); GI50 (A498): 17.7 µM (inactive); GI50 (NCI-H23): 0.0501 µM (active); GI50 (IGROV-1): 3.15 µM (inactive); GI50 (CAKI-1): 8.93 µM (inactive); GI50 (TK-10): 11.5 µM (inactive); GI50 (A549): 11.2 µM (inactive); GI50 (786-0): 3 µM (inactive); GI50 (MDA-MB-435): 4.6 µM (inactive)

**Q.** Which results are given for `CC(C)(C)NC(NC(C)(C)C)=C(/C=C(/Cl)[N+](=O)[O-])[N+](=O)[O-]`?
**A.** GI50 (SNB-75): 0.0395 µM (active); GI50 (UO-31): > 100 µM (inactive); GI50 (SK-MEL-5): 44.9 µM (inactive); GI50 (SK-MEL-2): > 100 µM (inactive); GI50 (SNB-19): > 100 µM (inactive); GI50 (M14): 27.7 µM (inactive); GI50 (NCI-H226): > 100 µM (inactive); GI50 (ACHN): 65.3 µM (inactive); GI50 (RPMI-8226): 67.3 µM (inactive); GI50 (T47D): 68.5 µM (inactive); GI50 (A498): > 100 µM (inactive); GI50 (NCI-H23): 42.7 µM (inactive); GI50 (IGROV-1): 51.8 µM (inactive); GI50 (CAKI-1): > 100 µM (inactive); GI50 (TK-10): > 100 µM (inactive); GI50 (A549): 25.7 µM (inactive); GI50 (786-0): 34.7 µM (inactive); GI50 (MDA-MB-435): 19.5 µM (inactive)

**Q.** `CC1CCC(=O)C(C(=O)CC2CC(=O)N(C)C(=O)C2)C1` (stereo not drawn) was tested. Which GI50 (SNB-75) did it give?
**A.** 35.3 µM (inactive)

**Q.** What about the GI50 (UO-31) of the same compound?
**A.** > 100 µM (inactive)

**Q.** What about the GI50 (SK-MEL-5) of the same compound?
**A.** > 100 µM (inactive)

**Q.** And the GI50 (SK-MEL-2)?
**A.** > 100 µM (inactive)

**Q.** What about the GI50 (SNB-19) of the same compound?
**A.** > 100 µM (inactive)

**Q.** And the GI50 (M14)?
**A.** > 100 µM (inactive)

**Q.** And the GI50 (NCI-H226)?
**A.** > 100 µM (inactive)

**Q.** And the GI50 (ACHN)?
**A.** > 100 µM (inactive)

**Q.** What about the GI50 (RPMI-8226) of the same compound?
**A.** > 100 µM (inactive)

**Q.** And the GI50 (T47D)?
**A.** > 100 µM (inactive)

**Q.** And the GI50 (A498)?
**A.** > 100 µM (inactive)

**Q.** What about the GI50 (NCI-H23) of the same compound?
**A.** > 100 µM (inactive)

**Q.** And the GI50 (IGROV-1)?
**A.** > 100 µM (inactive)

**Q.** And the GI50 (CAKI-1)?
**A.** > 100 µM (inactive)

**Q.** What about the GI50 (TK-10) of the same compound?
**A.** > 100 µM (inactive)

**Q.** And the GI50 (A549)?
**A.** > 100 µM (inactive)

**Q.** And the GI50 (786-0)?
**A.** > 100 µM (inactive)

**Q.** And the GI50 (MDA-MB-435)?
**A.** > 100 µM (inactive)

**Q.** `CN(C)c1ccc2nc(CC(O)(C(F)(F)F)C(F)(F)F)ccc2c1` was tested. Which GI50 (SNB-75) did it give?
**A.** > 10 µM (inactive)

**Q.** And the GI50 (UO-31)?
**A.** > 10 µM (inactive)

**Q.** What about the GI50 (SK-MEL-5) of the same compound?
**A.** > 10 µM (inactive)

**Q.** And the GI50 (SK-MEL-2)?
**A.** > 10 µM (inactive)

**Q.** And the GI50 (SNB-19)?
**A.** > 10 µM (inactive)

**Q.** What about the GI50 (M14) of the same compound?
**A.** > 10 µM (inactive)

**Q.** And the GI50 (NCI-H226)?
**A.** > 10 µM (inactive)

**Q.** And the GI50 (ACHN)?
**A.** > 10 µM (inactive)

**Q.** What about the GI50 (RPMI-8226) of the same compound?
**A.** > 10 µM (inactive)

**Q.** What about the GI50 (T47D) of the same compound?
**A.** > 10 µM (inactive)

**Q.** And the GI50 (A498)?
**A.** > 10 µM (inactive)

**Q.** And the GI50 (NCI-H23)?
**A.** > 10 µM (inactive)

**Q.** And the GI50 (IGROV-1)?
**A.** > 10 µM (inactive)

**Q.** What about the GI50 (CAKI-1) of the same compound?
**A.** > 10 µM (inactive)

**Q.** What about the GI50 (TK-10) of the same compound?
**A.** > 10 µM (inactive)

**Q.** What about the GI50 (A549) of the same compound?
**A.** > 10 µM (inactive)

**Q.** And the GI50 (786-0)?
**A.** > 10 µM (inactive)

**Q.** And the GI50 (MDA-MB-435)?
**A.** > 10 µM (inactive)
